Assay [1] concerns the target T1, TLR2 (Mus musculus, UniProt Q9QUN7).
T1 construct: endogenous in cells; host or cells: RAW 264.7
Briefly: TLR2 functional assay, cytokine release from RAW 264.7 mouse macrophage cell line. Format: cell-based. As to conditions: average of all runs. The method, then:
Cells of the immune system respond to TLR agonists in part by secreting cytokines. Functional assays for TLR2 agonists measure cytokine release from purified immune cells or immortalized cell lines derived from immune cells. Cytokine release is measured by standard ELISA approaches or multiplexed analysis using the Meso Scale Discovery (MSD) platform.
Purified primary human peripheral blood mononuclear cells or RAW 264.7 mouse macrophage cell line cells are plated at approximately 40,000 cells per well. Cells are treated with agonist compounds and assays 6-24 hours post-treatment for cytokines released into the cell culture media.
Following assay measurements utilizing either HEK-Blue detection or cytokine release, all data is analyzed with the GraphPad Prism8 statistical package to determine EC50, binding and activity metrics for the TLR2 modulators.
Numerous cell lines derived from various cell types can respond to TLR2 agonists with stereotyped cytokine and chemokine secretion. In particular, cell lines derived from macrophages respond robustly to TLR2 agonists by secreting a wide array of cytokines, including (but not limited to) TNF-alpha, IL-1, IL-10 and IL-12. The human monocytic cell line THP-1, the mouse macrophage line RAW-264.7, and the rat macrophage line NR8383 were used. For each assay, the respective cell lines were plated into 96-well plates overnight and then treated the following day with various TLR2-engaging compounds at varying concentrations. The next day, supernatants were collected and assayed by multiplex immunodetection for cytokines released (MSD detection kits for respective species).
Data provided in Table 5 is generated using protocols described in Example 45 and 46.

The target of assay [2] is TLR2 (Homo sapiens, UniProt O60603). Briefly: TLR2 agonist screening assay, HEK-Blue TLR2 reporter cell line (NF-kB-driven SEAP, absorbance at 600 nm). Format: cell-based. Set-up: host or cells: HEK-293 (HEK-Blue TLR2 reporter cell line). As to conditions: HEK-Blue TLR2 reporter cells, agonist mode; average of all runs (Table 4). In short, it runs like this: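 Read-out: SEAP colour change, A600, after overnight agonist exposure. Cells: HEK-293 overexpressing TLR2, NF-kB-SEAP reporter, ~40,000/well, plated 16-24 h prior.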

pEC50: −log10 of the molar value.

We go through 16 compounds from patent publication US11951094B2, “TLR2 modulator compounds, pharmaceutical compositions and uses thereof” (Axial Therapeutics, Inc., priority 2020, dated 2024).

By pEC50 is commonly meant the EC50 on a negative log10 scale, so that one unit is a factor of ten.

Chain of TLR2 (Homo sapiens, UniProt O60603) (O60603 21-784): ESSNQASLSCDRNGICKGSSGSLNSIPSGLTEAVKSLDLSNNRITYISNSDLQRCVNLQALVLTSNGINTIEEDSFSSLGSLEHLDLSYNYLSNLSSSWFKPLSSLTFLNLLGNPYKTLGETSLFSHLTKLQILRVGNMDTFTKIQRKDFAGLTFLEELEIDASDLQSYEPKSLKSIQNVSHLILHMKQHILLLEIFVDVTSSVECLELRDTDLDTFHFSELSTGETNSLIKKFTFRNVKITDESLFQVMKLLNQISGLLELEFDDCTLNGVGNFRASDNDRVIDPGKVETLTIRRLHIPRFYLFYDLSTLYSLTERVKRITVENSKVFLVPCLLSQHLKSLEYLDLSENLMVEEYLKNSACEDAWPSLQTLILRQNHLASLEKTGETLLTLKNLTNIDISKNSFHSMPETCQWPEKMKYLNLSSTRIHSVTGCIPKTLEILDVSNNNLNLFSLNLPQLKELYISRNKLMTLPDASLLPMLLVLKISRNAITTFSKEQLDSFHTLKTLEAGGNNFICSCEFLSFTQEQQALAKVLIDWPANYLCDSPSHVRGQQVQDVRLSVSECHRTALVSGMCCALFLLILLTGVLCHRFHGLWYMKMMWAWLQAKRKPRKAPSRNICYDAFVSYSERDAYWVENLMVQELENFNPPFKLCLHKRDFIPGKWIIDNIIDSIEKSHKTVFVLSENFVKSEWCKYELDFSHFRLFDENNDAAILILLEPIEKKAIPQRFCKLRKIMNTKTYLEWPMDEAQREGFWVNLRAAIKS
T1 sequence (Q9QUN7 25-784): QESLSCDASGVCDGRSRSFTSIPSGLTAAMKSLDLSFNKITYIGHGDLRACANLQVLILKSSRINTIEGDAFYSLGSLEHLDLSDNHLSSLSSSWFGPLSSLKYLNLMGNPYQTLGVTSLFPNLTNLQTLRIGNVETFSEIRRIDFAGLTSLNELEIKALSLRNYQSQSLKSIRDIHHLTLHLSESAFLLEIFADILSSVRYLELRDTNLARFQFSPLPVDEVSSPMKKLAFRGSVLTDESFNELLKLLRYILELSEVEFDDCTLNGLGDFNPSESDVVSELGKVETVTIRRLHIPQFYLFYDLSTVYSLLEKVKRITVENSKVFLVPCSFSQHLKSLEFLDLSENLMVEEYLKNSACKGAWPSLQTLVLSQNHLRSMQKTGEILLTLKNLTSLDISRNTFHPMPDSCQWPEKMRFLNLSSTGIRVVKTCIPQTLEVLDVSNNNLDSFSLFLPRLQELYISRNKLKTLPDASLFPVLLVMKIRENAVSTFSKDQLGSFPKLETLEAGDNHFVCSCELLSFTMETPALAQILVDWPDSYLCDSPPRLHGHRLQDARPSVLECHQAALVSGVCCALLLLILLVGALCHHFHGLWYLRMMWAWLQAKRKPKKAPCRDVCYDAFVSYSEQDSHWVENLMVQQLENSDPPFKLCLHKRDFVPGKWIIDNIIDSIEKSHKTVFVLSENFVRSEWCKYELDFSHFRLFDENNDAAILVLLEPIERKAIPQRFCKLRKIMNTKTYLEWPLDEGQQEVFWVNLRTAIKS

Take `CCCCCCCC(=O)N[C@@H](Cn1cc(-c2ccc(C(=O)N3C[C@@H](C(=O)N[C@H]4C[C@@H]4c4ccccc4)[C@H](C(=O)N[C@H]4C[C@@H]4c4ccccc4)C3)cc2)nn1)C(=O)NCCCCCC` [Compound 219, (3S,4S)-1-(4-(1-((S)-3-(hexylamino)-2-octanamido-3-oxopropyl)-1H-1,2,3-triazol-4-yl)benzoyl)-N3,N4-bis((1S,2R)-2-phenylcyclopropyl)pyrrolidine-3,4-dicarboxamide]: the pEC50 in assay [1] and in assay [2] was 7.30 to 10.00 in each case.

Consider `CCCCCCCCCCCCCNC(=O)N[C@@H]1CCCN(C(=O)c2ccc(C(=O)N3C[C@@H](C(=O)N[C@H]4C[C@@H]4c4ccccc4)[C@H](C(=O)N[C@H]4C[C@@H]4c4ccccc4)C3)cc2)C1` [Compound 205, (3S,4S)—N3,N4-bis((1S,2R)-2-phenylcyclopropyl)-1-(4-((R)-3-(3-tridecylureido)piperidine-1-carbonyl)benzoyl)pyrrolidine-3,4-dicarboxamide], for which the results for the negative logarithm of the EC50 (pEC50) in assay [1] and in assay [2] were less than 6.00 and 7.30 to 10.00, respectively.

As for `CCCCCCCOC(=O)N[C@@H](CNC(=O)c1ccc(C(=O)N2C[C@@H](C(=O)N[C@H]3C[C@@H]3c3ccccc3)[C@H](C(=O)N[C@H]3C[C@@H]3c3ccccc3)C2)cc1)C(=O)NCCCCCC` [Compound 227, heptyl ((S)-3-(4-((3S,4S)-3,4-bis(((1S,2R)-2-phenylcyclopropyl)carbamoyl)pyrrolidine-1-carbonyl)benzamido)-1-(hexylamino)-1-oxopropan-2-yl)carbamate], the negative-log EC50 (pEC50) in assay [1] was less than 6.00; in assay [2], 7.30 to 10.00.

With `CCCCCCNC(=O)[C@H](Cn1cc(-c2ccc(C(=O)N3C[C@@H](C(=O)N[C@H]4C[C@@H]4c4ccccc4)[C@H](C(=O)N[C@H]4C[C@@H]4c4ccccc4)C3)cc2)nn1)NC(=O)CCCCCC` [Compound 185, (3S,4S)-1-(4-(1-((S)-2-heptanamido-3-(hexylamino)-3-oxopropyl)-1H-1,2,3-triazol-4-yl)benzoyl)-N3,N4-bis((1S,2R)-2-phenylcyclopropyl)pyrrolidine-3,4-dicarboxamide], the negative logarithm of the EC50 (pEC50) in assay [1] and in assay [2] was 7.30 to 10.00 throughout.

Regarding `CCCCCCCCCCCCCNC(=O)N[C@H]1CN(C(=O)c2ccc(C(=O)N3C[C@@H](C(=O)N[C@H]4C[C@@H]4c4ccccc4)[C@H](C(=O)N[C@H]4C[C@@H]4c4ccccc4)C3)cc2)C[C@H]1OC` [Compound 210, (3S,4S)-1-(4-((3R,4S)-3-methoxy-4-(3-tridecylureido)pyrrolidine-1-carbonyl)benzoyl)-N3,N4-bis((1S,2R)-2-phenylcyclopropyl)pyrrolidine-3,4-dicarboxamide], the negative-log EC50 (pEC50) in assay [1] is less than 6.00; in assay [2], 7.30 to 10.00.

In the case of `CCCCCCCCOC(=O)N[C@@H](CNC(=O)c1ccc(C(=O)N2C[C@@H](C(=O)N[C@H]3C[C@@H]3c3ccccc3)[C@H](C(=O)N[C@H]3C[C@@H]3c3ccccc3)C2)cc1)C(=O)NCCCCCC` [Compound 228, octyl ((S)-3-(4-((3S,4S)-3,4-bis(((1S,2R)-2-phenylcyclopropyl)carbamoyl)pyrrolidine-1-carbonyl)benzamido)-1-(hexylamino)-1-oxopropan-2-yl)carbamate], the negative-log EC50 (pEC50) in assay [1] is less than 6.00; in assay [2], 7.30 to 10.00.

Take `CCCCCCCCCCCOC(=O)N[C@H]1CN(C(=O)c2ccc(C(=O)N3C[C@@H](C(=O)N[C@H]4C[C@@H]4c4ccccc4)[C@H](C(=O)N[C@H]4C[C@@H]4c4ccccc4)C3)cc2)C[C@@H]1OC` [Compound 215, undecyl ((3S,4S)-1-(4-((3S,4S)-3,4-bis(((1S,2R)-2-phenylcyclopropyl)carbamoyl)pyrrolidine-1-carbonyl)benzoyl)-4-methoxypyrrolidin-3-yl)carbamate]: the figures for the pEC50 in assay [1] and in assay [2] were less than 6.00 and 6.46 to 7.29, respectively.

In the case of `CCCCCCCNC(=O)N[C@@H](Cn1cc(-c2ccc(C(=O)N3C[C@@H](C(=O)N[C@H]4C[C@@H]4c4ccccc4)[C@H](C(=O)N[C@H]4C[C@@H]4c4ccccc4)C3)cc2)nn1)C(=O)NCCCCCC` [Compound 220, (3S,4S)-1-(4-(1-((S)-2-(3-heptylureido)-3-(hexylamino)-3-oxopropyl)-1H-1,2,3-triazol-4-yl)benzoyl)-N3,N4-bis((1S,2R)-2-phenylcyclopropyl)pyrrolidine-3,4-dicarboxamide], the pEC50 in assay [1] and in assay [2] was 7.30 to 10.00 in each case.

As to `CCCCCCCNC(=O)[C@H](CNC(=O)c1ccc(C(=O)N2C[C@@H](C(=O)N[C@H]3C[C@@H]3c3ccccc3)[C@H](C(=O)N[C@H]3C[C@@H]3c3ccccc3)C2)cc1)NC(=O)CCCCCCC` [Compound 184, (3S,4S)-1-(4-(((S)-3-(heptylamino)-2-octanamido-3-oxopropyl)carbamoyl)benzoyl)-N3,N4-bis((1S,2R)-2-phenylcyclopropyl)pyrrolidine-3,4-dicarboxamide], the results for the pEC50 in assay [1] and in assay [2] were 6.46 to 7.29 and 7.30 to 10.00, respectively.

For `CCCCCCCCCCCCCCC(=O)N[C@@H]1CN(C(=O)c2ccc(C(=O)N3C[C@@H](C(=O)N[C@H]4C[C@@H]4c4ccccc4)[C@H](C(=O)N[C@H]4C[C@@H]4c4ccccc4)C3)cc2)C[C@@H]1OC` [Compound 209, (3S,4S)-1-(4-((3S,4R)-3-methoxy-4-pentadecanamidopyrrolidine-1-carbonyl)benzoyl)-N3,N4-bis((1S,2R)-2-phenylcyclopropyl)pyrrolidine-3,4-dicarboxamide], the results for the negative-log EC50 (pEC50) in assay [1] and in assay [2] were less than 6.00 and 7.30 to 10.00, respectively.

For `CCCCCCCCCCCCOC(=O)N[C@H]1CN(C(=O)c2ccc(C(=O)N3C[C@@H](C(=O)N[C@H]4C[C@@H]4c4ccccc4)[C@H](C(=O)N[C@H]4C[C@@H]4c4ccccc4)C3)cc2)C[C@@H]1OC` [Compound 216, dodecyl ((3S,4S)-1-(4-((3S,4S)-3,4-bis(((1S,2R)-2-phenylcyclopropyl)carbamoyl)pyrrolidine-1-carbonyl)benzoyl)-4-methoxypyrrolidin-3-yl)carbamate], the figures for the negative logarithm of the EC50 (pEC50) in assay [1] and in assay [2] were less than 6.00 and 7.30 to 10.00, respectively.

As to `CCCCCCCCCC(=O)N[C@@H](Cn1cc(-c2ccc(C(=O)N3C[C@@H](C(=O)N[C@H]4C[C@@H]4c4ccccc4)[C@H](C(=O)N[C@H]4C[C@@H]4c4ccccc4)C3)cc2)nn1)C(=O)NCCCCCC` [Compound 213, (3S,4S)-1-(4-(1-((S)-2-decanamido-3-(hexylamino)-3-oxopropyl)-1H-1,2,3-triazol-4-yl)benzoyl)-N3,N4-bis((1S,2R)-2-phenylcyclopropyl)pyrrolidine-3,4-dicarboxamide], the pEC50 in assay [1] is 6.46 to 7.29; in assay [2], 7.30 to 10.00.

Take `CCCCCCNC(=O)[C@H](CNC(=O)c1ccc(C(=O)N2C[C@@H](C(=O)N[C@H]3C[C@@H]3c3ccccc3)[C@H](C(=O)N[C@H]3C[C@@H]3c3ccccc3)C2)cc1)NC(=O)N[C@H]1C[C@@H]1c1ccccc1` [Compound 222, (3S,4S)-1-(4-(((S)-3-(hexylamino)-3-oxo-2-(3-((1S,2R)-2-phenylcyclopropyl)ureido)propyl)carbamoyl)benzoyl)-N3,N4-bis((1S,2R)-2-phenylcyclopropyl)pyrrolidine-3,4-dicarboxamide]: the values for the pEC50 in assay [1] and in assay [2] were 6.46 to 7.29 and 7.30 to 10.00, respectively.

On to `CCCCCCNC(=O)[C@H](Cn1cnc(-c2ccc(C(=O)N3C[C@@H](C(=O)N[C@H]4C[C@@H]4c4ccccc4)[C@H](C(=O)N[C@H]4C[C@@H]4c4ccccc4)C3)cc2)c1)NC(=O)CCCCCC` [Compound 214, (3S,4S)-1-(4-(1-((S)-2-heptanamido-3-(hexylamino)-3-oxopropyl)-1H-imidazol-4-yl)benzoyl)-N3,N4-bis((1S,2R)-2-phenylcyclopropyl)pyrrolidine-3,4-dicarboxamide], for which the figures for the pEC50 in assay [1] and in assay [2] were 7.30 to 10.00 and 6.46 to 7.29, respectively.

Turning to `CCCCCCCCCCCCCCC(=O)N[C@@H]1CCCN(C(=O)c2ccc(C(=O)N3C[C@@H](C(=O)N[C@H]4C[C@@H]4c4ccccc4)[C@H](C(=O)N[C@H]4C[C@@H]4c4ccccc4)C3)cc2)C1` [Compound 152, (3S,4S)-1-(4-((R)-3-pentadecanamidopiperidine-1-carbonyl)benzoyl)-N3,N4-bis((1S,2R)-2-phenylcyclopropyl)pyrrolidine-3,4-dicarboxamide], the pEC50 is less than 6.00 in assay [1] and 7.30 to 10.00 in assay [2].

For `CCCCCCCCCCCNC(=O)N[C@H]1CN(C(c2ccc(C(=O)N3C[C@@H](C(=O)N[C@H]4C[C@@H]4c4ccccc4)[C@H](C(=O)N[C@H]4C[C@@H]4c4ccccc4)C3)cc2)C(F)(F)F)C[C@@H]1OC` (single isomer, unassigned) [Compound 230, (3S,4S)—N3,N4-bis((1S,2R)-2-phenylcyclopropyl)-1-(4-((R*)-2,2,2-trifluoro-1-((3S,4S)-3-methoxy-4-(3-undecylureido)pyrrolidin-1-yl)ethyl)benzoyl)pyrrolidine-3,4-dicarboxamide], the values for the pEC50 in assay [1] and in assay [2] were less than 6.00 and 7.30 to 10.00, respectively.
